The text below walks through data of article PMC11588130 (Proceedings of the National Academy of Sciences of the …, 2024).

The experiment concerns the target T1, human FXR (cotransfected with RXR) (Homo sapiens, UniProt Q96RI1).
T1 sequence (Q96RI1 1-486): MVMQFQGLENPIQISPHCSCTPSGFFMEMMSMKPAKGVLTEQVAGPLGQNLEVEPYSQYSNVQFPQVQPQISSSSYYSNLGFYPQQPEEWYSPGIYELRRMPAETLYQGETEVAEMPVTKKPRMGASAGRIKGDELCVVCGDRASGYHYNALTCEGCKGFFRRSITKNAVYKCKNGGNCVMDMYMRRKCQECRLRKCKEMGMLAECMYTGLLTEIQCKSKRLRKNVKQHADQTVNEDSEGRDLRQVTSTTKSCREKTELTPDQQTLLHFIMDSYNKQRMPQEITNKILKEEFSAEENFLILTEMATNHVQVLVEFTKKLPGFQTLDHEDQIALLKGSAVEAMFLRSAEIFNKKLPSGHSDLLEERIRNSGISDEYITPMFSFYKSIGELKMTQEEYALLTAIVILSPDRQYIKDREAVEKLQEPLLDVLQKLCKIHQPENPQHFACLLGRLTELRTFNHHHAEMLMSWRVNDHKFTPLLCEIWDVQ
T1 sequence (P19793 1-462 partner): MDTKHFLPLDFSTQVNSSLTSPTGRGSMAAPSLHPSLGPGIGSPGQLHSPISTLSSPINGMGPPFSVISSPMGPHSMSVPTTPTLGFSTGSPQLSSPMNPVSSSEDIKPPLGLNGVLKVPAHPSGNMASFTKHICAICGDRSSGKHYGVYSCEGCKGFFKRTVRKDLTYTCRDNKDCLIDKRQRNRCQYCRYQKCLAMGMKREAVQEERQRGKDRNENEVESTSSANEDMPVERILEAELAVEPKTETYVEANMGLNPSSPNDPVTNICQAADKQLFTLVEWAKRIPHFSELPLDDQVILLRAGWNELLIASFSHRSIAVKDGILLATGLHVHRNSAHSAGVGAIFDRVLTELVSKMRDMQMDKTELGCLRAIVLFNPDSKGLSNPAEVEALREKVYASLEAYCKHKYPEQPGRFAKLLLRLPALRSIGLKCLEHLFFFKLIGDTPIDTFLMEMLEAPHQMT
In words: FXRE-luciferase reporter in HEK293. The format is cell-based.

SMILES strings stand for the structures.

For orientation: IC50 means the concentration that gives 50% inhibition. A high value points to a need for much substance. Turning to `C[C@H](CCC(=O)O)[C@H]1CC[C@H]2[C@@H]3C(=O)C[C@@H]4C[C@H](O)CC[C@]4(C)[C@H]3C[C@H](O)[C@]12C` [7-oxo-DCA], 13.8 µM corresponded to half-maximal inhibition (IC50). This lies in the double-digit micromolar range.
